Experiment: Release of the antibiotic from the salts in an aqueous environment (finding in words)
Assay type: physicochemical
Details: method not given

Release of the underlying antibiotic in an aqueous environment, in a delayed fashion:
amikacin myristate, amikacin dodecyl sulfate, Amikacin laurate

From patent US7030093B2, “Antibiotic coating for porous bodies and method for its production as well as its use” (HERAEUS Kulzer GmbH & Co. KG, priority 2002, dated 2006)
